Experimental data: patent US20030149090A1, “Compositions for the treatment of infectious diseases” (priority 2001, published 2003)
“Also recorded” adds a separate entry of the source. One block for each molecule: values may come before it.

Key:
[1] = test system: NK cells and T cells; assay: Flow cytometry assay of lymphocyte apoptosis induced by Hp(2-20)-activated monocytes; assay type: cell-based, human
Description: (§1) Peripheral blood was obtained from healthy blood donors at Sahlgren's Hospital, Göteborg, Sweden. […] See Hansson et al. 1996. […] J Immunol. 156:427.
Apoptosis was monitored by use of flow cytometry, as described elsewhere. See Mellqvist et al. 2000. […] Blood. 96:1961-8. T cells or NK cells were gated after exposure to monocytes, and the gate was set to comprise lymphocytes with a reduced forward scatter and an increased right angle scatter characteristic of apoptosis. See Hansson et al. 1996. Two additional methods were used to determine apoptosis in NK cells and T cells: analysis of DNA strand breaks by terminal deoxynucleotidyl transferase-mediated bromolated dUTP nick end labelling of DNA fragments (TUNEL assay) and Annexin V staining, as described elsewhere. See Mellqvist et al.; Hansson et al. 1999. […] J Interferon Cytokine Res. 19:1135-44.
One million cells were stained with appropriate fluorescein isothiocyanate (FITC)- and phycoerythrin (PE)-conjugated monoclonal antibodies (Becton & Dickinson, Stockholm, Sweden; 10 μl/10^6 cells), as described in detail elsewhere. See Hansson et al. 1999. Cells were analyzed by use of flow cytometry on a FACSort with a Lysys II software program (Becton & Dickinson). Lymphocytes were gated on the basis of forward and right angle scatter. The flow rate was adjusted to <200 cells x s^−1 and at least 5×10^3 cells were analyzed for each sample.
After incubation, cells in a lymphocyte gate were assayed for morphological features of apoptosis (reduced forward and increased right angle scatter) by use of flow cytometry. In A, data are the frequency of apoptotic CD56^+ (NK; dark gray bars) or CD3ε^+ (T; open bars) after the following treatments:
Monocytes and/or lymphocytes were prepared as described in Methods. After incubation for 16 hrs, cells in a lymphocyte gate were assayed for morphological features of apoptosis (reduced forward and increased right angle scatter) by use of flow cytometry. Data are the frequency of apoptotic lymphocytes. histamine dihydrochloride, ranitidine, and Hp(2-20) were used at 50 μM, catalase at 100 U/ml, and SOD at 50 U/ml.

[2] = test system: NADPH-oxidase activity of monocytes; assay: NADPH-oxidase activity of monocytes, isoluminol-enhanced chemiluminescence; assay type: cell-based, human
Protocol: as §1
NADPH-oxidase activity was determined using an isoluminol-enhanced chemiluminescence (CL) system that quantitates extracellular reactive oxygen species (ROS). See Dahlgren, C., Karlsson, A. 1999. Respiratory burst in human neutrophils. J Immunol Methods 232:3-14.
Superoxide anion production in elutriated monocytes was investigated by isoluminol-amplified CL (A). Cells were treated with histamine (50 μM) or the histamine H2 receptor antagonist ranitidine (50 μM).

[3] = test system: Chlamidia trachomatis; details: ophthalmic solution 0.09% by weight, containing erythromycin, every three hours
Protocol: A subject presenting an eye infection due to Chlamidia trachomatis is treated with the compositions of the described embodiment using an ophthalmic solution of histamine dihydrochloride at 0.09% by weight of formulation. Commercially available ophthalmic solutions are well known in the art. Additionally, the ophthalmic solution, preferably in drop form, contains erythromycin. Application of the solution to the eye occurs every three hours. A solution containing only the ROM production and release inhibiting compound is given hourly to ease the discomfort of the subject.

[4] = test system: microbial infections; details: 0.08% by weight together with antimicrobial
Protocol: The ability of the ROM production and release inhibition compounds of the described embodiment to increase the effectiveness of antimicrobials is evaluated in two groups of 10 subjects each. No subjects are suffering from active infections at the initiation of the study. Group I subjects receive the type of antimicrobial used in treating the specific infection according to the dosage given by the manufacturer. […] The healing time of the patient in each group is then monitored.

[5] = test system: Tinea infection; details: cream, 0.08% by weight, topical four to five times a day
Description: Treatment of the subjects consists of the topical application of the medication four to five times a day at the lesion site. When treating fungal growths, care is taken not to contaminate new areas with fungal spores.

[6] = molecular target: NADPH oxidase (Homo sapiens, UniProt P04839); details: membrane-bound phagocyte oxidase, substrate; cited from earlier work
[7] = test system: Arcanobacterium haemolyticum; details: reported in the literature; cited from earlier work
[8] = test system: Streptococcus pneumonia; assay: Treatment of Streptococcus pneumonia lung infection using a nebulizer; assay type: in vivo; details: 0.05% by weight, mist through a nebulizer
Protocol: A subject diagnosed with Streptococcus pneumonia is treated with compounds of the described embodiment in the form of a nebulizer. The nebulizer is held firmly against the oral-nasal cavities of a patient with a respiratory infection. The nebulizer is used to deliver an aerosol mist as the patient inhales deeply. The aerosol mist contains either solely an effective amount of the preparation herein described or a mixture of the preparation and the chemotherapeutic used often administered for such an infection, such as, cephalexin. The ROM inhibitory compound NADPH oxidase inhibitor diphenlyeneiodonium in a concentration of 0.05% by weight of formulation is delivered as a mist in the patients lungs through a nebulizer.

[9] = test system: diarrhea-causing pathogens (Escherichia coli, Salmonella, Shigella or the like); assay: Treatment of diarrhea by oral administration of a capsule; assay type: in vivo; details: capsule 0.8% by weight, three to ten per day for seven to thirty days, with chemotherapeutic
Protocol: A subject suffering from diarrhea due to any number of pathogenic geni, speci, or strain of Escherichia coli, Proteus mirabilis, Salmonella enteritidis, Klebsiella Yersinia, Shigella, Serratia, Candida, Giardia intestinalis, Cryptosporidium, Vibrio cholera, Campylobacter, Ascaris or the like responsible for gastrointestinal distress in the form of diarrhea or the like is treated with a capsule containing the ROM inhibitory compound NADPH oxidase inhibitor diphenlyeneiodonium in a concentration of 0.8% by weight of formulation in addition to administration of the appropriate chemotherapeutic compound, such as an aminoglycoside, chloramphenicol, trimethoprimsulfa-methoxazole, doxycycline, or a fluoroquinolone. The treatment consists of oral intake of three to ten capsules per day for a period of seven to thirty days (depending the causative agent of the infection).

[10] = test system: Streptococcus mutans; assay: Treatment of dental carries using a toothpaste and mouthwash; assay type: in vivo; details: toothpaste and mouthwash 0.05% by weight, five times per day for seven days
Protocol: A subject suffering from dental carries due to Streptococcus mutans is treated with a toothpaste and a mouthwash containing the ROM inhibitory compound NADPH oxidase inhibitor diphenlyeneiodonium in a concentration of 0.05% by weight of formulation. The treatment consists of five tooth brushings with this toothpaste and mouthwash applications per day for a period of seven days.

[11] = test system: Helicobacter pylori; assay: Treatment of ulcers caused by Helicobacter pylori, oral controlled release device; assay type: in vivo; details: in combination with chemotherapeutics
Protocol: A patient diagnosed with ulcers caused by Helicobacter pylori is treated with the compounds of the described embodiment. A controlled release mechanism is replenished with an effective dose of the ROM inhibitory compound NADPH oxidase inhibitor diphenlyeneiodonium and administered to the patient by oral intake of the device. As the device rests in the patient's stomach it simultaneously delivers the compounds of the described embodiment and decomposes in order to allow excretion from the body. The compounds of the described embodiment are administered in combination with chemotherapeutics typically administered for such an infection, such as amoxycillin, clarithromycin, tetracycline, or metronidazole.

[12] = test system: S somaliensis; details: McNeil and Brown 1994; cited from earlier work
[13] = test system: NADPH-oxidase activity of monocytes; details: earlier finding, Bylund et al. 2001; cited from earlier work
[14] = ranitidine 50 μM with histamine 50 μM
[15] = histamine 50 μM, catalase 100 U/ml, SOD 50 U/ml, Hp(2-20) 50 μM, 16 hrs

Molecule: Cl.Cl.NCCc1c[nH]cn1 [Histamine, Histamine dihydrochloride]
Protection of NK cells and T cells from monocyte-dependent, Hp(2-20)-induced apoptosis ([1]; dihydrochloride): resuced T cells and NK cells from apoptosis; also recorded: protected NK cells/T cells from the monocyte-induced apoptosis; also recorded: prevent the triggering of NK cell and T cell apoptosis; also recorded: protect T cells and NK cells from apoptotic cell death
Inhibition of Hp(2-20)-induced oxygen radical formation in monocytes ([2]; histamine 50 μM, elutriated monocytes, dihydrochloride): markedly inhibited; also recorded: reduce or inhibit
Time period of bacterial eye infection, damage and discomfort [3]: reduces the time period of bacterial infection
Healing time with antimicrobial plus ROM inhibitory composition versus antimicrobial alone [4]: faster healing time
Healing time compared to the control group [5]: decrease in healing time

Molecule: NC(=O)C1=CN([C@@H]2O[C@H](COP(=O)(O)OP(=O)(O)OC[C@H]3O[C@@H](n4cnc5c(N)ncnc54)[C@H](O)[C@@H]3O)[C@@H](O)[C@H]2O)C=CC1 [NADH]
Km [6]: 450 µM

Molecule: NC(=O)C1=CN([C@@H]2O[C@H](COP(=O)(O)OP(=O)(O)OC[C@H]3O[C@@H](n4cnc5c(N)ncnc54)[C@H](OP(=O)(O)O)[C@@H]3O)[C@@H](O)[C@H]2O)C=CC1 [NADPH]
Km [6]: 45 µM

Molecule: O=C(N[C@H](CO)[C@H](O)c1ccc([N+](=O)[O-])cc1)C(Cl)Cl [chloramphenicol]
Susceptibility of A. haemolyticum [7]: uniformly susceptible

Molecule: c1ccc2c(c1)[I+]c1ccccc1-2 [diphenlyeneiodonium]
Recovery of a patient with pneumonia [8]: hastens the recovery
Treatment of diarrhea [9]: effective in accelerating the treatment of diarrhea
Treatment of dental carries [10]: effective in treating the dental carrier
Treatment of gastrointestinal ulcers [11]: effective in expediting the treatment of gastrointestinal ulcers

Molecule: CC[C@H]1OC(=O)[C@H](C)[C@@H](O[C@H]2C[C@@](C)(OC)[C@@H](O)[C@H](C)O2)[C@H](C)[C@@H](O[C@@H]2O[C@H](C)C[C@H](N(C)C)[C@H]2O)[C@](C)(O)C[C@@H](C)C(=O)[C@H](C)[C@@H](O)[C@]1(C)O [erythromycin]
In vitro sensitivity of S somaliensis [12]: sensitive

Molecule: CC(=O)O[C@H]1C[C@@]2(C)[C@@H](C[C@@H](O)[C@H]3[C@@]4(C)CC[C@@H](O)[C@@H](C)[C@@H]4CC[C@@]32C)/C1=C(\CCC=C(C)C)C(=O)O [fusidic acid]
In vitro sensitivity of S somaliensis [12]: sensitive
Susceptibility of A. haemolyticum [7]: uniformly susceptible

Effect on histamine's inhibition of Hp(2-20)-induced oxygen radical formation [2, 14]: reversed the inhibition
Molecule: CNC(=C[N+](=O)[O-])NCCSCc1ccc(CN(C)C)o1.Cl [ranitidine, ranitidine hydrochloride]
Effect on the histamine-induced protection of T cells and NK cells from apoptosis [1, 14]: antagonized

Molecule: [H]/N=C(/N)N[C@H]1[C@H](O)[C@@H](O)[C@H](O[C@@H]2O[C@@H](C)[C@](O)(C=O)[C@H]2O[C@@H]2O[C@@H](CO)[C@H](O)[C@@H](O)[C@@H]2NC)[C@@H](N/C(N)=N\[H])[C@@H]1O [streptomycin]
In vitro sensitivity of S somaliensis [12]: sensitive

Molecule: NC[C@H]1O[C@H](O[C@H]2[C@H](O)[C@@H](O[C@H]3O[C@H](CO)[C@@H](O)[C@H](N)[C@H]3O)[C@H](N)C[C@@H]2N)[C@H](N)C[C@@H]1O [tobramycin]
In vitro sensitivity of S somaliensis [12]: sensitive

Molecule: COc1cc(Cc2cnc(N)nc2N)cc(OC)c1OC [trimethoprim]
In vitro sensitivity of S somaliensis [12]: resistant

Molecule: AKKVFKRLEKLFSKIQNDK [Hp(2-20), cecropin-like peptide derived from Helicobacter pylori]
Induction of NK cell and T cell apoptosis by monocytes treated with the peptide ([1]; Hp(2-20) 50 μM, lymphocytes + 25% or 50% monocytes, overnight (16 hrs) incubation): induces apoptosis of T lymphocytes with CD3ε^+ phenotype and natural killer cells with CD56^+ phenotype; also recorded: triggers programmed cell death (apoptosis) of NK cells and T cells; also recorded: pronounced in NK cells as well as in CD3ε^+ T cells; also recorded: triggered NK cell and T cell death by apoptosis
Superoxide anion formation in phagocytic cells [13]: potently triggers superoxide anion formation

Molecule: Superoxide dismutase [SOD]
Protection of NK cells and T cells from monocyte-dependent, Hp(2-20)-induced apoptosis [1, 15]: completely prevented

Molecule: catalase
Protection of NK cells and T cells from monocyte-dependent, Hp(2-20)-induced apoptosis [1, 15]: completely prevented
